The test system of test [1] is NCI-H1975 (ATCC CRL-5908) cell line comprising an EGFR T790M L858R double mutation. In words: EGFR-SOS cellular inhibition assay (CellTiter-Glo cell proliferation). Particulars: Homo sapiens, 120 h; NCI-H1975 cell proliferation, approximately 5 days; read-out: H1975 IC50. The format is cell-based.
Protocol: A CellTiter-Glo (CTG) luminescent based assay (Promega) is used to assess growth of the cells, as a measurement of the ability of the compounds herein to inhibit EGFR signaling in the cells. […] The day after plating, cells are treated with a dilution series (e.g., a 9 point 3-fold dilution series) of the compounds herein (e.g., approximately 125 μL final volume per well).
Another test addresses SOS1 (Homo sapiens (Human), UniProt Q07889). The test can be described thus: Ras-SOS interaction assay (HTRF), K-Ras G13D utilized. Particulars: K-Ras G13D, read-out: SOS1 IC50. It is filed as binding. From the text: For example, the equilibrium interaction of human SOS1 (hSOS1) with human wildtype Kras or K-Ras mutant (e.g., hK-Ras G12C mutant, or hK-Ras G12C) can be assessed as a proxy or an indication for a subject compound's ability to inhibit SOS. Detection of such interaction is achieved by measuring homogenous time-resolved fluorescence resonance energy transfer (HTRF) from (i) a fluorescence resonance energy transfer (FRET) donor (e.g., antiGST-Europium) that is bound to GST-tagged K-Ras G12C to (ii) a FRET acceptor (e.g., anti-6His-XL665) bound to a His-tagged hSOS1.
A Ras working solution is prepared in assay buffer containing typically 10 nM of the protein construct (e.g., GST-tagged hK-Ras G12C) and 2 nM of the FRET donor (e.g., antiGST-Eu(K) from Cisbio, France). A SOS1 working solution is prepared in assay buffer containing typically 10 nM of the protein construct (e.g., His-hSOS1) and 10 nM of the FRET acceptor (e.g., anti-6His-XL665 from Cisbio, France). An inhibitor control solution is prepared in assay buffer containing 10 nM of the FRET acceptor without the SOS1 protein.
A fixed reaction mixture with or without test compound is transferred into a 384-well plate. Ras working solution is added to all wells of the test plate. SOS1 working solution is added to all wells except for those that are subsequently filled with the inhibitor control solution. […] The ratiometric data (i.e., emission 2 divided by emission 1) is used to calculate IC50 values against SOS1 using GraphPad Prism (GraphPad software).

Each structure is given as a SMILES string.

A word on the IC50: it is the concentration needed to halve the response being measured.

Chain of SOS1 (Q07889 564-1049): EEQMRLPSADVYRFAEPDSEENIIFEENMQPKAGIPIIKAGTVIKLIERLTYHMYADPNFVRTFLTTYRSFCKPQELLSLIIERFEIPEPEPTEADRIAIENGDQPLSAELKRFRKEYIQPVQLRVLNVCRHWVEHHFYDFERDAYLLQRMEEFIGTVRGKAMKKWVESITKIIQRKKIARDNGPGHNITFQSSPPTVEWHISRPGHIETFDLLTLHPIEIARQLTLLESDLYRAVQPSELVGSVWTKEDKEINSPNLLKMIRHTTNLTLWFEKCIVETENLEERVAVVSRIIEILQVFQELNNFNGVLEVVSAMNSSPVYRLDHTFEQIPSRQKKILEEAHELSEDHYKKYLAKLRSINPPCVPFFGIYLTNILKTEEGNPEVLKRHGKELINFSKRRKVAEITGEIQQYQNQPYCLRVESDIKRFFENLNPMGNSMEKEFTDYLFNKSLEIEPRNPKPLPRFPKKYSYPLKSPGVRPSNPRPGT

Take `C[C@H]1Nc2ncnc3c2cc(C2(C#N)CC2)c(=O)n3CCCC(=O)N(C)CCN2CCC(CC2)C(F)(F)c2cccc1c2` [Compound 27, 1-((4R)-2,2-difluoro-4,11-dimethyl-6^7,10-dioxo-6^7,6^8-dihydro-5,11-diaza-6(4,8)-pyrido[2,3-d]pyrimidina-1(4,1)-piperidina-3(1,3)-benzenacyclotridecaphane-6^6-yl)cyclopropane-1-carbonitrile]: the IC50 in test [1] is < 1000 nM; on SOS1 it was < 100 nM.
In the case of `C[C@H]1Nc2ncnc3c2cc(C2CCS(=O)(=O)CC2)c(=O)n3CCCCCCC(=O)N2CCC(CC2)C(F)(F)c2cccc1c2F` [Compound 28, (4R)-6^6-(1,1-dioxidotetrahydro-2H-thiopyran-4-yl)-3^2,2,2-trifluoro-4-methyl-6^7,6^8-dihydro-5-aza-6(4,8)-pyrido[2,3-d]pyrimidina-1(4,1)-piperidina-3(1,3)-benzenacyclotridecaphane-6^7,13-dione], the concentration for half-maximal inhibition (IC50) is < 1000 nM in test [1] and < 100 nM on SOS1.
Take `C[C@H]1Nc2ncnc3c2cc(C2CCS(=O)(=O)CC2)c(=O)n3CCCC(=O)NCCN2CCC(CC2)C(F)(F)c2cccc1c2` [Compound 30, (4R)-6^6-(1,1-dioxidotetrahydro-2H-thiopyran-4-yl)-2,2-difluoro-4-methyl-6^7,6^8-dihydro-5,11-diaza-6(4,8)-pyrido[2,3-d]pyrimidina-1(4,1)-piperidina-3(1,3)-benzenacyclotridecaphane-6^7,10-dione]: the figures for the half-maximal inhibitory concentration (IC50) (in test [1]; on SOS1) were < 1000 nM and < 100 nM, respectively.
As to `CC1CCCCCCn2c(=O)c(C3(C#N)CC3)cc3c(ncnc32)N[C@H](C)c2cccc(c2F)C(F)(F)C2CCN1CC2` (stereo partly drawn) [Compound 34, 1-((4R)-3^2,2,2-trifluoro-4,13-dimethyl-6^7-oxo-6^7,6^8-dihydro-5-aza-6(4,8)-pyrido[2,3-d]pyrimidina-1(4,1)-piperidina-3(1,3)-benzenacyclotridecaphane-6^6-yl)cyclopropane-1-carbonitrile], the IC50 is < 1000 nM in test [1] and < 100 nM on SOS1.
`C[C@@H]1C(=O)NCCCCn2c(=O)c(C3(C#N)CC3)cc3c(ncnc32)N[C@H](C)c2cccc(c2)C(F)(F)C2CCN1CC2` [Compound 36, 1-((4R,13R)-2,2-difluoro-4,13-dimethyl-6^7,12-dioxo-6^7,6^8-dihydro-5,11-diaza-6(4,8)-pyrido[2,3-d]pyrimidina-1(4,1)-piperidina-3(1,3)-benzenacyclotridecaphane-6^6-yl)cyclopropane-1-carbonitrile]: the IC50 was < 1000 nM in test [1] and < 100 nM on SOS1.
The matching figures for `C[C@H]1Nc2ncnc3c2cc(N2CCS(=O)(=O)CC2)c(=O)n3CCCCCCCN2CCC(CC2)C(F)(F)c2cccc1c2F` [Compound 38, (4R)-6^6-(1,1-dioxidothiomorpholino)-3^2,2,2-trifluoro-4-methyl-6^7,6^8-dihydro-5-aza-6(4,8)-pyrido[2,3-d]pyrimidina-1(4,1)-piperidina-3(1,3)-benzenacyclotridecaphan-6^7-one]: < 1000 nM and < 100 nM.
The matching figures for `C[C@H]1Nc2ncnc3c2cc(C2CCS(=O)(=O)CC2)c(=O)n3Cc2cn(nn2)CCCCN2CCC(CC2)C(F)(F)c2cccc1c2` [Compound 40, (5R,Z)-3^6-(1,1-dioxidotetrahydro-2H-thiopyran-4-yl)-7,7-difluoro-5-methyl-3^7,3^8-dihydro-1^1H-4-aza-3(8,4)-pyrido[2,3-d]pyrimidina-8(4,1)-piperidina-1(4,1)-triazola-6(1,3)-benzenacyclododecaphan-3^7-one]: < 1000 nM and < 100 nM.
`C[C@H]1Nc2ncnc3c2cc(C2CCS(=O)(=O)CC2)c(=O)n3CCCN(C)C(=O)CCN2CCC(CC2)C(F)(F)c2cccc1c2` [Compound 41, (4R)-6^6-(1,1-dioxidotetrahydro-2H-thiopyran-4-yl)-2,2-difluoro-4,10-dimethyl-6^7,6^8-dihydro-5,10-diaza-6(4,8)-pyrido[2,3-d]pyrimidina-1(4,1)-piperidina-3(1,3)-benzenacyclotridecaphane-6^7,11-dione]: the IC50 in test [1] was < 1000 nM; at SOS1, < 100 nM.
The corresponding values for `C[C@H]1Nc2ncnc3c2cc(N2CCS(=O)(=O)CC2)c(=O)n3CCCCCCCN2CCC(CC2)C(F)(F)c2cccc1c2` [Compound 42, (4R)-6^6-(1,1-dioxidothiomorpholino)-2,2-difluoro-4-methyl-6^7,6^8-dihydro-5-aza-6(4,8)-pyrido[2,3-d]pyrimidina-1(4,1)-piperidina-3(1,3)-benzenacyclotridecaphan-6^7-one] are < 1000 nM and < 100 nM.
For the compound `C[C@H]1Nc2ncnc3c2cc(C2(C#N)CC2)c(=O)n3CCCCCCCN2CCC(CC2(C)C)C(F)(F)c2cccc1c2` (stereo partly drawn) [Compound 43, 1-((4R)-2,2-difluoro-1^2,1^2,4-trimethyl-6^7-oxo-6^7,6^8-dihydro-5-aza-6(4,8)-pyrido[2,3-d]pyrimidina-1(4,1)-piperidina-3(1,3)-benzenacyclotridecaphane-6^6-yl)cyclopropane-1-carbonitrile], the results for the IC50 (in test [1]; at SOS1) were < 1000 nM and < 100 nM, respectively.
Consider `Cc1nc2c3cc(C4(C#N)CC4)c(=O)n(c3n1)CCCCCCCOCC(F)(F)c1cccc(c1F)[C@@H](C)N2` [Compound 44, 1-((3R)-4^2,5,5-trifluoro-1^2,3-dimethyl-1^7-oxo-1^7,1^8-dihydro-7-oxa-2-aza-1(4,8)-pyrido[2,3-d]pyrimidina-4(1,3)-benzenacyclotetradecaphane-1^6-yl)cyclopropane-1-carbonitrile], for which the IC50 was in the range of 1000 to 10000 nM in test [1] and 100 to 5000 nM on SOS1.
The matching figures for `C[C@H]1Nc2ncnc3c2cc(C2CCS(=O)(=O)CC2)c(=O)n3CC(=O)N(C)CCCCN2CCC(CC2)C(F)(F)c2cccc1c2` [Compound 46, (4R)-6^6-(1,1-dioxidotetrahydro-2H-thiopyran-4-yl)-2,2-difluoro-4,9-dimethyl-6^7,6^8-dihydro-5,9-diaza-6(4,8)-pyrido[2,3-d]pyrimidina-1(4,1)-piperidina-3(1,3)-benzenacyclotridecaphane-6^7,8-dione]: < 1000 nM and < 100 nM.
With `C[C@H]1Nc2ncnc3c2cc(C2CCS(=O)(=O)CC2)c(=O)n3CCCCCCCCCN2CCC(CC2)C(F)(F)c2cccc1c2` [Compound 47, (4R)-6^6-(1,1-dioxidotetrahydro-2H-thiopyran-4-yl)-2,2-difluoro-4-methyl-6^7,6^8-dihydro-5-aza-6(4,8)-pyrido[2,3-d]pyrimidina-1(4,1)-piperidina-3(1,3)-benzenacyclopentadecaphan-6^7-one], the results for the half-inhibitory concentration (IC50) (in test [1]; at SOS1) were < 1000 nM and < 100 nM, respectively.
The corresponding values for `Cc1nc2c3cc(C4(C#N)CC4)c(=O)n(c3n1)CCCCCCCCOCC(F)(F)c1cccc(c1F)[C@@H](C)N2` [Compound 49, 1-((3R)-4^2,5,5-trifluoro-1^2,3-dimethyl-1^7-oxo-1^7,1^8-dihydro-7-oxa-2-aza-1(4,8)-pyrido[2,3-d]pyrimidina-4(1,3)-benzenacyclopentadecaphane-1^6-yl)cyclopropane-1-carbonitrile] are < 1000 nM and < 100 nM.
